This is an account of results in article PMC5598135 (Toxicology Reports, 2014).

The assay addresses mTOR kinase (Homo sapiens, UniProt P42345). Nature of the assay: cell-free ELISA kinase assay. The format is biochemical.

Regarding `O=C1NC(c2cccc3ncccc23)Nc2ccccc21` (stereo not shown) [DQQ, 2,3-dihydro-2-(quinoline-5-yl) quinazolin-4(1H)-one], the IC50 amounted to 6 nM.

As usually defined, the IC50 is the point on the concentration scale where inhibition reaches its midpoint.
